Assay results reported in US6579881B2 (Eisai Co., Ltd., priority 1997, dated 2003).
Where a name gives a salt, the structure may show the parent alone.

Experiments:
[1] = molecular target: serotonin 2 receptor (Rattus norvegicus, UniProt P14842); assay: Binding test on [3H] ketanserin (serotonin 2 receptor); settings: [3H] ketanserin 0.3 nM, receptor fraction of rat cerebral cortex; read-out: 5HT2
[2] = molecular target: α1 adrenalin receptor; assay: Binding test on [3H] prazosin (α1 adrenalin receptor); set-up: species or system rat; settings: [3H] prazosin about 0.2 nM, receptor fraction of rat cerebral cortex
[3] = molecular target: T1, serotonin 1A receptor (Rattus norvegicus, UniProt P19327); assay: Binding test on [3H] 8-hydroxy-dipropylaminotetralin (serotonin 1A receptor); settings: [3H] 8-OH-DPAT 0.5 nM, receptor fraction of rat hippocampus; read-out: 5HT1a
T1 construct: To the receptor fraction of the hippocampus were added a test compound and 0.5 nM of [^3H]; 8-hydroxy-dipropylaminotetralin; from tissue; host or cells: SD rat hippocampus, membrane (receptor) fraction
T1 sequence (P19327 1-422): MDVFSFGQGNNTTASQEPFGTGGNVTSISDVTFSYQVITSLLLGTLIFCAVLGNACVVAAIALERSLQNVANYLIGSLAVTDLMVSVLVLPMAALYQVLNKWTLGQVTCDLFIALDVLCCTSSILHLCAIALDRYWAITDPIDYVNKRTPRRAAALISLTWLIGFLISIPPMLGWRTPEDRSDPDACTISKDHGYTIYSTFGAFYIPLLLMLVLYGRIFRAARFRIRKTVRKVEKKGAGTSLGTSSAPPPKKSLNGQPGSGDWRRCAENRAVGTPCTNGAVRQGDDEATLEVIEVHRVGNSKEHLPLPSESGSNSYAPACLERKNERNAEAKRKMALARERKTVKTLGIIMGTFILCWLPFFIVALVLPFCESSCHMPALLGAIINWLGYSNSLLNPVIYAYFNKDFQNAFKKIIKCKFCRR

serotonin 2 receptor, sequence (P14842 whole entry): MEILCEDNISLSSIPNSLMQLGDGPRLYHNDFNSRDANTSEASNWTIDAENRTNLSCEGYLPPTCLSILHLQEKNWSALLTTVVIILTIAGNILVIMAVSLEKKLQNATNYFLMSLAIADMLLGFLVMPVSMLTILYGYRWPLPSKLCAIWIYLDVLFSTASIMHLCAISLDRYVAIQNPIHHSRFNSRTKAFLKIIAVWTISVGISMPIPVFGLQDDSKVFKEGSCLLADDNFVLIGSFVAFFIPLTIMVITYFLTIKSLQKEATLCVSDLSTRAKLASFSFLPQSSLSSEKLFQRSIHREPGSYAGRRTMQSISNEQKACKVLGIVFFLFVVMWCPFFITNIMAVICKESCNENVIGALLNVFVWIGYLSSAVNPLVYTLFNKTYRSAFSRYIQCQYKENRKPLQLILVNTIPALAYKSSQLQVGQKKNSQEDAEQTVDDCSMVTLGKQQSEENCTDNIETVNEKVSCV

Row | Structure (SMILES) | Ki [1] [nM] | Ki [2] [nM] | melting point | Ki [3] [nM]
1 | NC(=O)Cc1ccc2ccn(C3CCN(CCc4ccc(F)cc4)CC3)c2c1 [Example 305, 1-[1-(4-fluorophenethyl)piperidin-4-yl]-6-carbamoylmethylindole] | 3.29 | 35.9 | 159.1 to 160.8 °C | 0.06
2 | O=C(Cc1ccc2ccn(C3CCN(CCc4ccc(F)cc4)CC3)c2c1)NC(CO)CO.O=C(O)C(=O)O [Example 304, 1-[1-(4-fluorophenethyl)piperidin-4-yl]-6-(1,3-dihydroxypropan-2-yl)carbamoylmethylindole Oxalate] | 6.26 | 141 | 213.1 to 214.5 °C (dec.) | 8.37
3 | CCCNC(=O)Cc1ccc2ccn(C3CCN(CCc4ccc(F)cc4)CC3)c2c1 [Example 297, 1-[1-(4-fluorophenethyl)piperidin-4-yl]-6-(n-propylcarbamoylmethyl)indole] | 4.17 | 226 | 131.1 to 131.9 °C | 0.98
4 | CC(C)NC(=O)Cc1ccc2ccn(C3CCN(CCc4ccc(F)cc4)CC3)c2c1 [Example 286, 1-[1-(4-fluorophenethyl)piperidin-4-yl]-6-(N-isopropylcarbamoylmethyl)indole] | 3.12 |  | 146 to 148 °C | 3.74
5 | O=C(CCl)NCc1ccc(CCN2CCC(N3CCc4ccccc43)CC2)cc1 (as salt: oxalate) [Example 37, 1-[1-(4-chloroacetamidomethylphenethyl)piperidin-4-yl]indoline] |  |  | 138 °C | 
6 | COc1ccc2c(c1OC)N(C1CCN(CCc3ccc(F)cc3)CC1)CCC2 (as salt: hydrochloride) |  |  | 213 to 215 °C | 
7 | COc1ccc2c(c1)N(C1CCN(CCc3cccs3)CC1)CCC2 (as salt: hydrochloride) [Example 270, 1-{1-[2-(2-Thienyl)ethyl]piperidin-4-yl}-7-methoxy-1,2,3,4-tetrahydroquinoline Hydrochloride] |  |  | 232 to 235 °C | 
8 | COc1ccc2c(c1)N(C1CCN(CCc3ccc(F)cc3)CC1)CCC2 (as salt: hydrochloride) |  |  | 258 °C (dec.) | 
9 | CS(=O)(=O)NCc1ccc(CCN2CCC(N3CCc4ccccc43)CC2)cc1 (as salt: oxalate) [Example 38, 1-[1-(4-methanesulfonylaminomethylphenethyl)piperidin-4-yl]indoline] |  |  | 199 °C | 
10 | COc1ccc2c(c1C)N(C1CCN(CCc3ccc(F)cc3)CC1)CCC2 (as salt: oxalate) |  |  | 176 to 178 °C | 
11 | COc1ccc2c(c1)N(C1CCN(CCCC#N)CC1)CCC2 (as salt: hydrochloride) [Example 269, 1-[1-(4-Cyanopropyl)piperidin-4-yl]-7-methoxy-1,2,3,4-tetrahydroquinoline Hydrochloride] |  |  | 180 to 183 °C (dec.) | 
12 | COc1ccc2c(c1)N(C1CCN(CC(=O)c3ccc(F)cc3)CC1)CCC2 (as salt: hydrochloride) |  |  | 153 to 155 °C (dec.) | 
13 | O=[N+]([O-])c1ccc(CCN2CCC(N3CCc4ccccc43)CC2)cc1 [Example 29, 1-[1-(4-nitrophenethyl)piperidin-4-yl]indoline] | 36.5 |  | 95 to 97 °C | 
14 | O=C(CF)NCc1ccc2ccn(C3CCN(CCc4ccccc4F)CC3)c2c1 (as salt: oxalate) [Example 381, 1-[1-(2-fluorophenethyl)piperidin-4-yl]-6-fluoroacetamidomethylindole] |  |  | 168 to 169 °C | 

More lines, now with the values ahead:

Row | Ki [1] [nM] | Ki [2] [nM] | melting point | Ki [3] [nM] | Structure (SMILES)
15 | > 20 |  | 59 to 60 °C | 1.52 | CC(=O)NCc1ccc2ccn(C3CCN(CCCCc4ccc(F)cc4)CC3)c2c1 [Example 356, 1-{1-[4-(4-fluorophenyl)butyl]-piperidin-4-yl}-6-acetamidomethylindole]
16 | 1.77 |  | 143 to 144 °C | 0.24 | O=C(CCl)NCc1ccc2ccn(C3CCN(CCc4ccc(F)cc4)CC3)c2c1 [Example 373, 1-[1-(4-fluorophenethyl)piperidin-4-yl]-6-chloroacetamidomethylindole]
17 | > 20 |  | 238 to 240 °C | < 0.2 | NC(=O)c1ccc2ccn(C3CCN(CCc4ccc(F)cc4)CC3)c2c1 [Example 337, 1-[1-(4-fluorophenethyl)piperidin-4-yl]-6-carbamoylindole]
18 | 4.23 | 289 | 76 to 78 °C | 1.73 | O=C(CO)NCc1ccc2ccn(C3CCN(CCc4ccc(F)cc4)CC3)c2c1 [Example 364, 1-[1-(4-fluorophenethyl)piperidin-4-yl]-6-hydroxyacetamidomethylindole]
19 | > 20 | 31.7 | 195 to 196 °C | < 0.2 | CC(=O)Nc1ccc2ccn(C3CCN(CCc4ccc(F)cc4)CC3)c2c1 [Example 339, 1-[1-(4-fluorophenethyl)piperidin-4-yl]-6-acetamidoindole]
20 | > 20 | 339 | 118 to 119 °C | 0.11 | OCCOc1ccc2ccn(C3CCN(CCc4ccc(F)cc4)CC3)c2c1 [Example 330, 1-[1-(4-fluorophenethyl)piperidin-4-yl]-6-hydroxyethoxyindole]
21 | 2.54 | 37.8 | 171.9 to 172.8 °C | 0.85 | NC(=O)NCc1ccc2ccn(C3CCN(CCc4ccc(F)cc4)CC3)c2c1 [Example 393, 1-[1-(4-fluorophenethyl)piperidin-4-yl]-6-ureidomethylindole]
22 |  |  | 195 to 196 °C |  | CNCc1ccc2ccn(C3CCN(CCc4ccc(F)cc4)CC3)c2c1 (as salt: oxalate) [Example 361, 1-[1-(4-fluorophenethyl)piperidin-4-yl]-6-N-methylaminomethylindole]
23 | 15.5 |  | 140 to 141 °C | 0.53 | CC(=O)NCc1ccc2ccn(C3CCN(CCc4ccc(Br)cc4)CC3)c2c1 [Example 389, 1-[1-(4-bromophenethyl)piperidin-4-yl]-6-acetamidomethylindole]
24 |  |  | 148 to 149 °C |  | CC(=O)N(C)Cc1ccc2ccn(C3CCN(CCc4ccc(F)cc4)CC3)c2c1 (as salt: oxalate) [Example 359, 1-[1-(4-fluorophenethyl)piperidin-4-yl]-6-N-methylacetamidomethylindole]
25 |  |  | 86 to 87 °C |  | NCc1ccc2ccn(C3CCN(CCc4ccccc4F)CC3)c2c1 [Example 348, 1-[1-(2-fluorophenethyl)piperidin-4-yl]-6-aminomethylindole]
26 |  |  | 108 to 109 °C |  | O=C(CCN1CCCCC1)NCc1ccc2ccn(C3CCN(CCc4ccc(F)cc4)CC3)c2c1 (as salt: oxalate) [Example 379, 1-[1-(4-fluorophenethyl)piperidin-4-yl]-6-[3-(piperidin-1-yl)propionylamino]methylindole]
27 |  |  | 156 to 157 °C |  | O=C(NCc1ccc2ccn(C3CCN(CCc4ccc(F)cc4)CC3)c2c1)n1ccnc1 (as salt: oxalate) [Example 368, 1-[1-(4-fluorophenethyl)piperidin-4-yl]-6-imidazocarbonylaminomethylindole]
28 |  |  | 171.5 to 172.1 °C |  | O=C(Cc1ccc2ccn(C3CCN(CCc4ccc(F)cc4)CC3)c2c1)N1CCCC1 (as salt: oxalate) [Example 298, 1-[1-(4-fluorophenethyl)piperidin-4-yl]-6-(tetramethylenecarbamoylmethyl)indole Oxalate]
29 |  |  | 104 to 105 °C |  | CN(C)CCC(=O)NCc1ccc2ccn(C3CCN(CCc4ccc(F)cc4)CC3)c2c1 (as salt: oxalate) [Example 378, 1-[1-(4-fluorophenethyl)piperidin-4-yl]-6-(3-N,N-dimethylaminopropionyl)aminomethylindole]
30 |  |  | 113 to 114 °C |  | O=C(CN1CCCCC1)NCc1ccc2ccn(C3CCN(CCc4ccc(F)cc4)CC3)c2c1 (as salt: oxalate) [Example 376, 1-[1-(4-fluorophenethyl)piperidin-4-yl]-6-[(piperidin-1-yl)acetamido]methylindole]
31 | 0.25 |  | 117 to 118 °C | 0.13 | COC(=O)NCc1ccc2ccn(C3CCN(CCc4ccc(F)cc4)CC3)c2c1 [Example 384, 1-[1-(4-fluorophenethyl)piperidin-4-yl]-6-methoxycarbonylaminomethylindole]
32 |  |  | 112 to 113 °C |  | CN(C)CC(=O)NCc1ccc2ccn(C3CCN(CCc4ccc(F)cc4)CC3)c2c1 (as salt: oxalate) [Example 375, 1-[1-(4-fluorophenethyl)piperidin-4-yl]-6-(N,N-dimethylaminoacetamido)methylindole]
33 |  |  | 179 to 180 °C |  | O=C1CCCN1Cc1ccc2ccn(C3CCN(CCc4ccc(F)cc4)CC3)c2c1 (as salt: oxalate) [Example 358, 1-[1-(4-fluorophenethyl)piperidin-4-yl]-6-(2-pyrrolidon-1-yl)methylindole]
34 | 2.54 |  | 156.9 to 157.8 °C | 0.11 | NC(=O)Cc1ccc2ccn(C3CCN(CCc4ccc(F)cc4F)CC3)c2c1 [Example 299, 1-[1-(2,4-difluorophenethyl)piperidin-4-yl]-6-carbamoylmethylindole]
